Experimental data published in ChEMBL document CHEMBL3868582, “Discovery, pharmacology, and clinical profile of omadacycline, a novel aminomethylcycline antibiotic” (Bioorg Med Chem, 2016).
≈ marks a conversion by molar mass, not a printed value.

What was measured:
[1] = AUC(0 to 24 hrs) in human at 300 mg, po; assay type: ADME; design: time < 24 hr, dose 300 mg, route oral; settings: in vivo
[2] = Cmax in human at 100 mg, iv administered as infusion; assay type: ADME, organism-based; design: dose 100 mg, route intravenous; settings: in vivo
[3] = Terminal half life in human at 100 mg, iv or 300 mg, po; settings: in vivo
[4] = Protein binding in human plasma at 0.1 to 10 ug/ml; assay type: ADME, cell-free; settings: read-out: PPB (converted)
[5] = Systemic clearance in human at 100 mg, iv or 300 mg, po; assay type: ADME, organism-based; settings: in vivo
[6] = Oral bioavailability in human 300 mg; assay type: ADME, organism-based; settings: in vivo
[7] = Cmax in human at 300 mg, po; assay type: ADME; design: dose 300 mg, route oral; settings: in vivo
[8] = Volume of distribution in human at 100 mg, iv or 300 mg, po; assay type: ADME, organism-based; settings: in vivo
[9] = AUC(0 to 24 hrs) in human at 100 mg, iv; assay type: ADME; design: dose 100 mg, time < 24 hr, route intravenous; settings: in vivo
OAT1 (SLC22A6) = OAT1 (SLC22A6) (Homo sapiens, UniProt Q4U2R8); experiment: Inhibition of human OAT1 expressed in HEK293 cells at 25 uM; assay type: cell-based
OAT1 (SLC22A6), sequence (Q4U2R8 whole entry): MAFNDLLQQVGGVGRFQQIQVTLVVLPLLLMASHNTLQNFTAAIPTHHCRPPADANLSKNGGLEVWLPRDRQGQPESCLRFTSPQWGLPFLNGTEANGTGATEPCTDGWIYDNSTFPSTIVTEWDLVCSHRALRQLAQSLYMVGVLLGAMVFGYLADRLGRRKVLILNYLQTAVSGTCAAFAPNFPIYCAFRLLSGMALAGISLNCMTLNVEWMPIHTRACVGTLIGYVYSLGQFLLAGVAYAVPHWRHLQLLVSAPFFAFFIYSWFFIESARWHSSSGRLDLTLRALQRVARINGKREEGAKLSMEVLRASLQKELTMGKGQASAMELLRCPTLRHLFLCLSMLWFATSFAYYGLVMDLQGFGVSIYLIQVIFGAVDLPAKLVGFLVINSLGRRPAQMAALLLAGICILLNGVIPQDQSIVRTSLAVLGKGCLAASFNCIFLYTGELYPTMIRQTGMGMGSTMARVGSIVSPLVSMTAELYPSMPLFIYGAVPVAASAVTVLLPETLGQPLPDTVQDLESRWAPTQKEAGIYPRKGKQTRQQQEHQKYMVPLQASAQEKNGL

[10] = Drug excretion in human urine at 36.6 uCi, po administered as single dose; assay type: ADME, organism-based; settings: in vivo
[11] = Drug excretion in human feces at 36.6 uCi, po administered as single dose; assay type: ADME, organism-based; settings: in vivo
OATP1B1 = OATP1B1 (Homo sapiens, UniProt Q9Y6L6); experiment: Inhibition of OATP1B1 (unknown origin) in HEK293 cells at 100 uM; assay type: cell-based; settings: HEK293 cells expressing OATP1B1
OATP1B1, sequence (Q9Y6L6 whole entry): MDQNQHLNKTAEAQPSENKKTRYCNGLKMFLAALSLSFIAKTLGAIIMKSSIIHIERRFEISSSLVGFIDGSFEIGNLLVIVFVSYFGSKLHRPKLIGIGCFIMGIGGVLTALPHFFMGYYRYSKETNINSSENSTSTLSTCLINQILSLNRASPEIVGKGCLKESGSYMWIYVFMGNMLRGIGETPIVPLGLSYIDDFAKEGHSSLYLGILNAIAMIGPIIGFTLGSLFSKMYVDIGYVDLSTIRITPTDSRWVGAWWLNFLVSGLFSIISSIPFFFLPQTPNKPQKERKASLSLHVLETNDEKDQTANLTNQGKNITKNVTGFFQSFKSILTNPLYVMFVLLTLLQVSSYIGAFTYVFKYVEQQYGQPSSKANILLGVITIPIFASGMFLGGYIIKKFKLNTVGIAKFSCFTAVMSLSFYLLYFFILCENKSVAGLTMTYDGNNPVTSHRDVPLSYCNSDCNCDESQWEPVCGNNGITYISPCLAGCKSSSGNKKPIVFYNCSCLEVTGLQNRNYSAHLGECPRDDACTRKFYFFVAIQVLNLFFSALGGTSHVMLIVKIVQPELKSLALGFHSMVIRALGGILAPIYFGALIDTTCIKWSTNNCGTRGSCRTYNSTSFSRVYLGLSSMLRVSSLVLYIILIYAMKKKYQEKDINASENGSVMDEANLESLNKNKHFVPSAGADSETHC

OATP1B3 = OATP1B3 (Homo sapiens, UniProt Q9NPD5); experiment: Inhibition of OATP1B3 (unknown origin) in HEK293 cells at 100 uM; assay type: cell-based; settings: HEK293 cells expressing OATP1B3
OATP1B3, sequence (Q9NPD5 whole entry): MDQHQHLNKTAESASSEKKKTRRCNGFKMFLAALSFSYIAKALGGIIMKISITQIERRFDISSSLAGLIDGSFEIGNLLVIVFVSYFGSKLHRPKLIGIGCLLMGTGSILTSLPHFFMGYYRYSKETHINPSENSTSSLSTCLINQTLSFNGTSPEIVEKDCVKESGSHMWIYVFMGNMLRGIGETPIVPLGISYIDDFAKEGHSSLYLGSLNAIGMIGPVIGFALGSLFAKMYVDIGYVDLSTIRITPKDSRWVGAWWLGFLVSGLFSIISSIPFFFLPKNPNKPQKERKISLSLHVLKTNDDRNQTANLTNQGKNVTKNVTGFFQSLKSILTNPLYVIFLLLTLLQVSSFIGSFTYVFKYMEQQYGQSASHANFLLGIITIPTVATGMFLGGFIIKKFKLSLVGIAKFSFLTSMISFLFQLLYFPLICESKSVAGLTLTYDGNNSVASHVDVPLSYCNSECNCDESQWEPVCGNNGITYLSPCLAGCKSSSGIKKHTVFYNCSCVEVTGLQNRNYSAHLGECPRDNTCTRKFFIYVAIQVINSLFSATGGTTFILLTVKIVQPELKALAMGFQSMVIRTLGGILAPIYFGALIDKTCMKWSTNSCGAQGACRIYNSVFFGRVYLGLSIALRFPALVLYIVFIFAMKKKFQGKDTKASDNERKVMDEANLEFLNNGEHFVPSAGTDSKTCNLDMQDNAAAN

[12] = Fraction absorbed in human urine at 36.6 uCi, po administered as single dose; assay type: ADME, organism-based; settings: in vivo
Streptococcus pneumoniae [13] = experiment: Antibacterial activity against Streptococcus pneumoniae PBS1399 infected in mouse assessed as protection against bacterial infection by measuring mouse survival administered intravenously as single dose after 2 hrs of infection measured on day 7; assay type: functional; settings: PBS1399, iv, read-out: PD50
Streptococcus pneumoniae [14] = experiment: Antibacterial activity against Streptococcus pneumoniae PBS1399; assay type: functional
Haemophilus influenzae [15] = experiment: Antibacterial activity against Haemophilus influenzae PBS981; assay type: functional
Haemophilus influenzae [16] = experiment: Antibacterial activity against Haemophilus influenzae PBS981 infected in CD-1 mouse assessed as reduction in bacterial load in lungs administered intravenously as single dose after 2 hrs of infection measured after 24 hrs post treatment; assay type: functional; settings: PBS981, iv
Clostridioides difficile = experiment: Antibacterial activity against Clostridium difficile infected in hamster model assessed as median survival time; assay type: functional
[17] = Cmax in human at 1.5 mg/kg, iv q24h; assay type: ADME, organism-based; design: dose 1.5 mg/kg, route intravenous; settings: in vivo
[18] = Oral bioavailability in human at 100 mg administered q12h; assay type: ADME, organism-based; settings: in vivo
[19] = AUC(0 to 24 hrs) in human at 1.5 mg/kg, iv q24h; assay type: ADME, organism-based; design: dose 1.5 mg/kg, time < 24 hr, route intravenous; settings: in vivo
[20] = Terminal half life in human at 1.5 mg/kg, iv q24h or 100 mg, po q12h; assay type: ADME, organism-based; settings: in vivo, read-out: beta t1/2
[21] = Systemic clearance in human at 1.5 mg/kg, iv q24h or 100 mg, po q12h; assay type: ADME, organism-based; settings: in vivo
[22] = Cmax in human at 100 mg, po q12h; assay type: ADME, organism-based; design: dose 100 mg, route oral; settings: in vivo
[23] = Protein binding in human plasma; assay type: ADME, cell-free; settings: read-out: PPB
[24] = AUC(0 to 24 hrs) in human at 100 mg, po q12h; assay type: ADME, organism-based; design: time < 24 hr, dose 100 mg, route oral; settings: in vivo
[25] = Tmax in human at 300 mg, po; assay type: ADME; settings: in vivo
[26] = Half life in human at 300 mg, po; settings: in vivo
Staphylococcus aureus [27] = experiment: Antibacterial activity against Staphylococcus aureus USA400; assay type: functional
Staphylococcus aureus [28] = experiment: Antibacterial activity against Staphylococcus aureus USA300 in mouse thigh wound infection model assessed as reduction in bacterial load administered intravenously as single dose after 2 hrs of infection measured after 24 hrs post treatment; assay type: functional; settings: USA300, iv
Staphylococcus aureus [29] = experiment: Antibacterial activity against Staphylococcus aureus USA400 in mouse thigh wound infection model assessed as reduction in bacterial load administered intravenously as single dose after 2 hrs of infection measured after 24 hrs post treatment; assay type: functional; settings: USA400, iv
[30] = Terminal half life in human at 50 mg, iv q12h; assay type: ADME, organism-based; settings: in vivo, read-out: beta t1/2
[31] = Systemic clearance in human at 50 mg, iv q12h; assay type: ADME, organism-based; settings: in vivo
Staphylococcus aureus [32] = experiment: Antibacterial activity against Staphylococcus aureus USA300; assay type: functional
[33] = AUC(0 to 24 hrs) in human at 50 mg, iv q12h; assay type: ADME, organism-based; design: dose 50 mg, time < 24 hr, route intravenous; settings: in vivo
[34] = Cmax in human at 50 mg, iv q12h; assay type: ADME, organism-based; design: dose 50 mg, route intravenous; settings: in vivo

SMILES: CN(C)c1cc(CNCC(C)(C)C)c(O)c2c1C[C@H]1C[C@H]3[C@H](N(C)C)C(O)=C(C(N)=O)C(=O)[C@@]3(O)C(O)=C1C2=O.Cl
- AUC(0-t) at 24 h [1]: 5900 ng·h/mL
- Cmax [2]: 1800 ng/mL
- half-life [3]: 17 h
- fraction unbound [4]: 0.79
- CL [5]: 17.1 L/h
- bioavailability [6]: 34.5%
- Cmax [7]: 700 ng/mL
- Vd [8]: 333 to 640 L
- AUC [9]: 8800 ng·h/mL

SMILES: CN(C)c1cc([14CH2]NCC(C)(C)C)c(O)c2c1C[C@H]1C[C@H]3[C@H](N(C)C)C(O)=C(C(N)=O)C(=O)[C@@]3(O)C(O)=C1C2=O
- inhibition at 25 µM (OAT1 (SLC22A6)): 32.1%
- Drug excretion [10]: 14.4 %ID
- Drug excretion [11]: 81.1 %ID
- inhibition at 100 µM (OATP1B1): 10.1%
- inhibition at 100 µM (OATP1B3): 10.1%
- Fabs [12]: 40%

SMILES: CN(C)c1cc([14CH2]NCC(C)(C)C)c(O)c2c1C[C@H]1C[C@H]3[C@@H](N(C)C)C(O)=C(C(N)=O)C(=O)[C@@]3(O)C(O)=C1C2=O
- Drug excretion [10]: 14.4 %ID

SMILES: CC[C@H]1OC(=O)[C@H](C)[C@@H](O[C@H]2C[C@@](C)(OC)[C@@H](O)[C@H](C)O2)[C@H](C)[C@@H](O[C@@H]2O[C@H](C)C[C@H](N(C)C)[C@H]2O)[C@](C)(O)C[C@@H](C)CN(C)[C@H](C)[C@@H](O)[C@]1(C)O [AZITHROMYCIN]
- ED50 (Streptococcus pneumoniae [13]): 3.31 mg/kg
- MIC (Streptococcus pneumoniae [14]): 0.03 µg/mL (≈ 0.0401 µM)

SMILES: CO/N=C(\C(=O)N[C@@H]1C(=O)N2C(C(=O)O)=C(CSc3nc(=O)c(O)nn3C)CS[C@H]12)c1csc(N)n1 [CEFTRIAXONE]
- ED50 (Streptococcus pneumoniae [13]): 0.37 mg/kg
- MIC (Streptococcus pneumoniae [14]): 0.015 µg/mL (≈ 0.027 µM)
- MIC (Haemophilus influenzae [15]): < 0.06 µg/mL
- ED50 (Haemophilus influenzae [16]): 0.1 mg/kg

SMILES: O=C(O)c1cn(C2CC2)c2cc(N3CCNCC3)c(F)cc2c1=O [CIPROFLOXACIN]
- MIC (Haemophilus influenzae [15]): < 0.06 µg/mL
- ED50 (Haemophilus influenzae [16]): 1.16 mg/kg

SMILES: CCC[C@@H]1C[C@@H](C(=O)N[C@@H]([C@H]2O[C@H](SC)[C@H](O)[C@@H](O)[C@H]2O)[C@H](C)Cl)N(C)C1 [CLINDAMYCIN]
- MST (Clostridioides difficile): 4 days

SMILES: CCCCCCCCCC(=O)N[C@@H](Cc1c[nH]c2ccccc12)C(=O)N[C@@H](CC(N)=O)C(=O)N[C@@H](CC(=O)O)C(=O)N[C@@H]1C(=O)NCC(=O)N[C@@H](CCCN)C(=O)N[C@@H](CC(=O)O)C(=O)N[C@H](C)C(=O)N[C@@H](CC(=O)O)C(=O)NCC(=O)N[C@H](CO)C(=O)N[C@@H]([C@H](C)CC(=O)O)C(=O)N[C@@H](CC(=O)c2ccccc2N)C(=O)O[C@@H]1C [DAPTOMYCIN]
- ED50 (Streptococcus pneumoniae [13]): > 100 mg/kg
- MIC (Streptococcus pneumoniae [14]): 0.25 µg/mL (≈ 0.154 µM)

SMILES: C[C@H]1c2cccc(O)c2C(=O)C2=C(O)[C@]3(O)C(=O)C(C(N)=O)=C(O)[C@@H](N(C)C)[C@@H]3[C@@H](O)[C@@H]21.O [DOXYCYCLINE]
- ED50 (Streptococcus pneumoniae [13]): 10.3 mg/kg
- MIC (Streptococcus pneumoniae [14]): 0.125 µg/mL

SMILES: CN(C)[C@@H]1C(O)=C(C(N)=O)C(=O)[C@@]2(O)C(O)=C3C(=O)c4c(O)c(NC(=O)CN5CCCC5)cc(F)c4C[C@H]3C[C@@H]12 [ERAVACYCLINE]
- Cmax [17]: 1900 ng/mL
- bioavailability [18]: 28%
- AUC at 24 h [19]: 7900 ng·h/mL
- half-life [20]: 10 to 14 h
- clearance [21]: 297 mL/min
- Cmax [22]: 160 ng/mL
- fraction unbound [23]: 0.13 to 0.21
- AUC at 24 h [24]: 3100 ng·h/mL

SMILES: C[C@H]1COc2c(N3CCN(C)CC3)c(F)cc3c(=O)c(C(=O)O)cn1c23.C[C@H]1COc2c(N3CCN(C)CC3)c(F)cc3c(=O)c(C(=O)O)cn1c23.O [LEVOFLOXACIN]
- ED50 (Streptococcus pneumoniae [13]): > 18 mg/kg
- MIC (Haemophilus influenzae [15]): < 0.06 µg/mL
- ED50 (Haemophilus influenzae [16]): 2.4 mg/kg

SMILES: CC(=O)NC[C@H]1CN(c2ccc(N3CCOCC3)c(F)c2)C(=O)O1 [LINEZOLID]
- ED50 (Streptococcus pneumoniae [13]): 38.8 mg/kg

SMILES: CN(C)c1ccc(O)c2c1C[C@H]1C[C@H]3[C@H](N(C)C)C(O)=C(C(N)=O)C(=O)[C@@]3(O)C(O)=C1C2=O [MINOCYCLINE]
- ED50 (Streptococcus pneumoniae [13]): 3.44 mg/kg
- MIC (Streptococcus pneumoniae [14]): 0.25 µg/mL (≈ 0.546 µM)

SMILES: CN(C)c1cc(CNCC(C)(C)C)c(O)c2c1C[C@H]1C[C@H]3[C@H](N(C)C)C(O)=C(C(N)=O)C(=O)[C@@]3(O)C(O)=C1C2=O.Cc1ccc(S(=O)(=O)O)cc1 [OMADACYCLINE TOSYLATE]
- Tmax [25]: 3 h
- bioavailability [6]: 34.5%
- half-life [26]: 17 h
- Cmax [7]: 540 ng/mL

SMILES: CN(C)c1cc(NC(=O)CNC(C)(C)C)c(O)c2c1C[C@H]1C[C@H]3[C@H](N(C)C)C(O)=C(C(N)=O)C(=O)[C@@]3(O)C(O)=C1C2=O [TIGECYCLINE]
- MIC (Staphylococcus aureus [27]): 0.06 µg/mL (≈ 0.102 µM)
- ED50 (Streptococcus pneumoniae [13]): 0.91 mg/kg
- MIC (Streptococcus pneumoniae [14]): 0.125 µg/mL (≈ 0.213 µM)
- ED50 (Staphylococcus aureus [28]): 0.45 mg/kg
- ED50 (Staphylococcus aureus [29]): 0.46 mg/kg
- MIC (Haemophilus influenzae [15]): 0.25 µg/mL (≈ 0.427 µM)
- half-life [30]: 37 to 66 h
- CL [31]: 23.8 L/h
- MIC (Staphylococcus aureus [32]): 0.125 µg/mL (≈ 0.213 µM)
- AUC [33]: 4700 ng·h/mL
- Cmax [34]: 870 ng/mL
- fraction unbound [23]: 0.13 to 0.31
- ED50 (Haemophilus influenzae [16]): 2.31 mg/kg

SMILES: CN[C@H](CC(C)C)C(=O)N[C@H]1C(=O)N[C@@H](CC(N)=O)C(=O)N[C@H]2C(=O)N[C@H]3C(=O)N[C@H](C(=O)N[C@H](C(=O)O)c4cc(O)cc(O)c4-c4cc3ccc4O)[C@H](O)c3ccc(c(Cl)c3)Oc3cc2cc(c3O[C@@H]2O[C@H](CO)[C@@H](O)[C@H](O)[C@H]2O[C@H]2C[C@](C)(N)[C@H](O)[C@H](C)O2)Oc2ccc(cc2Cl)[C@H]1O [VANCOMYCIN]
- ED50 (Streptococcus pneumoniae [13]): 3.3 mg/kg
- MIC (Streptococcus pneumoniae [14]): 0.5 µg/mL (≈ 0.345 µM)
- MST (Clostridioides difficile): 2 days
